Data set [1] has as its system normal human lung fibroblasts (NHLF). Briefly: Phenotypic high-content assay (HCA) of TGF–β1–induced fibroblast–to–myofibroblast differentiation. The format is cell-based. The conditions noted are these: for inhibition at 10 µM: read-out: Effect HCA at 10 µM [% inhibition]; for IC50: read-out: HCA IC50. The protocol:
(§1) The plate was washed 3 times with starvation medium, e.g. fibroblast basal medium (FBM, Lonza) supplemented with 0.1% faf BSA, 100 units / ml of penicillin and 100 μg / ml of streptomycin and 250 ng / ml amphotericin B, and then starved for 24 h in 30 μl volume. NHLF were differentiated into myofibroblasts by incubation with 5 ng / ml TGF–β1 (from a stock of 20 μg / ml in 4 mM HCl, 1 mg / ml BSA) for 48 h. Compounds were prepared as 5x stocks in starvation medium and added to the starved cells to a final 1x concentration concomitant with TGF–β1 addition. The final DMSO concentration in the assay was 0.6% in all wells. 48 h after TGF–β1 addition, the medium was removed and the cells were fixed in methanol for 10 min at room temperature (RT). After fixation, cells were washed 3 times with 1 x PBS and either stored at 4°C for up to 3 days or further processed. […] Images were acquired on the Opera Phenix confocal high–content screening system (Perkin Elmer) using the 20–x water immersion lens.
(§2) DAPI stained nuclei were used to identify cells. α–SMA and FN regions were then identified and mapped to the corresponding nuclei for background correction, cell segmentation and cell feature computation to identify, classify and weigh over 400 features per cell. The computed features (S1 Table) comprise, but are not limited to, granularity, intensity, texture, area, shape and solidity of a cell in both α–SMA–and FN–expressing regions. The 0% compound effect (5 ng / ml TGF–β1) and the 100% compound effect (0 ng / ml TGF–β1) controls, were used to train and validate a support vector machine (SVM), a supervised learning model with associated learning algorithm that, once successfully validated, was applied to every cell in every well of the assayed microtiter plate. The SVM allowed autonomous weighting and classification of the characteristics and thus enabled the classifier to decide which characteristics were most relevant for the differentiation of the cell types. […] The classification of each cell was aggregated to a cell type ratio per well, represented as the computed percentage effect value per well indicative of the degree of myofibroblast differentiation. E.g. 100% equals complete myofibroblast differentiation, 0% indicates a pure fibroblast population without any signs of differentiation.

For data set [2] the test system is unchanged. Briefly: Nuclear count in the HCA, standard assay. The format is cell-based. As to conditions: read-out: Nuclear count IC50. The protocol:
as §1, §2

Data set [3] relates to NHLF cells. The data set can be described thus: RealTime–Glo MT viability assay. The protocol: The effect of compounds on cell viability was assessed by quantifying the relative metabolic activity of cells using the non–lytic luminescence–based RealTime–Glo™ MT cell viability assay (Promega) according to the manufacturer’s instructions.
[4] abbreviates: Homo sapiens, Fibroblast, 10 µM compound, 5 ng/ml TGF–β1, 48 h.
The mark [5] stands for this setting: 10 µM compound, 5 ng/ml TGF–β1, 48 h.
The mark [6] stands for this setting: NHLF, 5 ng/ml TGF–β1 for 48 h, compound added with TGF–β1, mean ± SD.
Where [7] appears, read: standard HCA, NHLF, 5 ng/ml TGF–β1, 48 h.
[8] abbreviates: Homo sapiens, Fibroblast, 48 h, standard HCA, NHLF, 5 ng/ml TGF–β1, 48 h.
Where [9] appears, read: Homo sapiens, Fibroblast, 48 h, NHLF, 5 ng/ml TGF–β1 for 48 h, compound added with TGF–β1, mean ± SD.

Where two headings read alike, the source gives them in different places. Some results are limits rather than exact numbers.

Consider `CC(=O)O[C@H]1C[C@H](O[C@H]2[C@@H](O)C[C@H](O[C@H]3[C@@H](O)C[C@H](O[C@H]4CC[C@@]5(C)[C@H](CC[C@@H]6[C@@H]5C[C@@H](O)[C@]5(C)[C@@H](C7=CC(=O)OC7)CC[C@]65O)C4)O[C@@H]3C)O[C@@H]2C)O[C@H](C)[C@H]1O[C@@H]1O[C@H](CO)[C@@H](O)[C@H](O)[C@H]1O` [Lanatoside C], for which, in data set [1] (setting [4]), the inhibition at 10 µM amounted to 100%. For the same compound, the IC50 is 0.035 µM in data set [1] (Homo sapiens, Fibroblast, NHLF, 5 ng/ml TGF–β1 for 48 h, compound added with TGF–β1, mean ± SD) and greater than 25 µM in data set [2] (Homo sapiens, Fibroblast, standard HCA, NHLF, 5 ng/ml TGF–β1, 48 h). Besides, the “Effect on viability at 10 µM [% reduction]” value (“Effect … [% reduction]” below) in data set [3] (human, 10 µM) was determined as 19 % reduction.

As to `CC[C@@]1(O)C(=O)OCc2c1cc1n(c2=O)Cc2cc3ccccc3nc2-1` [Camptothecine (S+)], the “Effect HCA at 10 µM [% inhibition]” value in data set [1] (setting [5]) is reported as 105 % inhibition. Further, the half-inhibitory concentration (IC50) in data set [1] (setting [6]) is 0.041 µM; in data set [2] (setting [7]) it was greater than 25 µM. Moreover, the “Effect … [% reduction]” value in data set [3] (10 µM compound) came to 5 % reduction.

`COc1ccc(CCN2CCC(Nc3nc4ccccc4n3Cc3ccc(F)cc3)CC2)cc1` [Astemizole]: the inhibition at 10 µM in data set [1] (setting [4]) was 105%. Moreover, the IC50 in data set [2] (setting [8]) came out at 8.3 µM. Further, in data set [3] (human, 10 µM), the “Effect … [% reduction]” value stood at 49 % reduction.

As to `CC(C)(C)c1nc(-c2cccc(NS(=O)(=O)c3c(F)cccc3F)c2F)c(-c2ccnc(N)n2)s1` [Dabrafenib (GSK2118436), Dabrafenib], the IC50 in data set [1] (setting [9]) is 2.9 µM; in data set [2] (setting [8]), greater than 25 µM. Besides, the inhibition at 10 µM in data set [1] (setting [4]) was 56%. For the same compound, in data set [3] (10 µM compound), the “Effect … [% reduction]” value is recorded as 9 % reduction.

For the compound `COC(=O)Nc1nc2ccc(Sc3ccccc3)cc2[nH]1` [Fenbendazole], the 50% inhibitory concentration (IC50) in data set [1] (setting [9]) turned out to be 6.7 µM; in data set [2] (setting [8]), 5.8 µM. For the same compound, in data set [1] (setting [4]), the inhibition at 10 µM stood at 76%. Also, the “Effect … [% reduction]” value in data set [3] (human, 10 µM) turned out to be 51 % reduction.

As to `Nc1c2ccccc2nc2ccccc12` [Aminacrine], the 50% inhibitory concentration (IC50) is 6 µM in data set [1] (setting [9]) and 24 µM in data set [2] (setting [8]). Further, the inhibition at 10 µM in data set [1] (setting [4]) was 97%. Also, in data set [3] (10 µM compound), the “Effect … [% reduction]” value was found to be 2 % reduction.

Consider `Cc1nc(Nc2ncc(C(=O)Nc3c(C)cccc3Cl)s2)cc(N2CCN(CCO)CC2)n1` [Dasatinib (BMS–354825), Dasatinib], for which the IC50 in data set [1] (setting [9]) was 1.02 µM; in data set [2] (setting [8]), greater than 25 µM. For the same compound, the inhibition at 10 µM in data set [1] (setting [4]) was 89%. Moreover, in data set [3] (human, 10 µM), the “Effect … [% reduction]” value was “–10 % reduction”.

For the compound `C=C(NC(=O)C(=C)NC(=O)c1csc(C2=N[C@@H]3c4csc(n4)[C@H]4NC(=O)c5csc(n5)[C@H]([C@](C)(O)[C@@H](C)O)NC(=O)[C@H]5CSC(=N5)/C(=C/C)NC(=O)[C@H]([C@@H](C)O)NC(=O)c5csc(n5)[C@]3(CC2)NC(=O)[C@H](C)NC(=O)C(=C)NC(=O)[C@H](C)NC(=O)[C@H]([C@@H](C)CC)N[C@@H]2C=Cc3c([C@H](C)O)cc(nc3[C@H]2O)C(=O)O[C@@H]4C)n1)C(N)=O` [Thiostrepton], in data set [1] (Homo sapiens, Fibroblast, 48 h), the inhibition at 10 µM was found to be 85% and the IC50 is 2.2 µM. In addition, the IC50 in data set [2] (Homo sapiens, Fibroblast, 48 h) was found to be 7.6 µM. The “Effect … [% reduction]” value in data set [3] (10 µM compound) is “–11 % reduction”.

As to `CCSc1ccc2c(c1)N(CCCN1CCN(C)CC1)c1ccccc1S2.O=C(O)CC(O)C(=O)O.O=C(O)CC(O)C(=O)O` [Thiethylperazine dimalate], in data set [1] (setting [5]), the “Effect HCA at 10 µM [% inhibition]” value came to 76 % inhibition. In addition, the results for the IC50 in data set [1] (setting [6]) and in data set [2] (setting [7]) were 8.5 µM and 13 µM, respectively. Besides, the “Effect … [% reduction]” value in data set [3] stood at 34 % reduction.

For the compound `Nc1ncn(C2OC(CO)C(O)C2O)c(=O)n1` (stereo not drawn) [Azacytidine–5], the “Effect HCA at 10 µM [% inhibition]” value in data set [1] (setting [5]) turned out to be 97 % inhibition. The values for the concentration for half-maximal inhibition (IC50) in data set [1] (setting [6]) and in data set [2] (setting [7]) were 3.2 µM and greater than 25 µM, respectively. The “Effect … [% reduction]” value in data set [3] is reported as “–4 % reduction”.

Consider `C[C@@H]1O[C@@H](O[C@H]2C[C@@H](O)[C@]3(CO)[C@H]4[C@H](O)C[C@]5(C)[C@@H](C6=CC(=O)OC6)CC[C@]5(O)[C@@H]4CC[C@]3(O)C2)[C@H](O)[C@H](O)[C@H]1O` [Ouabain], for which the IC50 is 0.012 µM in data set [1] (setting [9]) and greater than 25 µM in data set [2] (setting [8]). Moreover, the inhibition at 10 µM in data set [1] (setting [4]) is 100%. For the same compound, in data set [3] (10 µM compound), the “Effect … [% reduction]” value was 15 % reduction.

`CCOc1ccc2nc3cc(N)ccc3c(N)c2c1` [Ethacridine lactate monohydrate]: the concentration for half-maximal inhibition (IC50) is 7.5 µM in data set [1] (setting [9]) and greater than 25 µM in data set [2] (setting [8]). The inhibition at 10 µM in data set [1] (setting [4]) is 73%. In addition, in data set [3] (10 µM compound), the “Effect … [% reduction]” value was “–9 % reduction”.

With `Cc1cc(C#N)cc(C)c1Oc1nc(Nc2ccc(C#N)cc2)nc(N)c1Br` [Etravirine (TMC125), Etravirine], the IC50 in data set [1] (setting [9]) is 3.9 µM; in data set [2] (setting [8]), greater than 25 µM. Besides, the inhibition at 10 µM in data set [1] (setting [4]) was 100%. The “Effect … [% reduction]” value in data set [3] (10 µM compound) is on record as 29 % reduction.

What is called inhibition is the drop in the measured response relative to a control, in per cent. As usually defined, the IC50 is the point on the concentration scale where inhibition reaches its midpoint.

The record behind these values is publication PMC6261607, “Novel high–throughput myofibroblast assays identify agonists with therapeutic potential in pulmonary fibrosis that act via EP2 and EP4 receptors” (PLoS ONE, 2018).
